Tested on: 653999-131-R-J2-PDC complex spheroids, growth inhibition
Test: Anticancer human tumor 653999-131-R-J2-PDC patient-derived lung adenocarcinoma cell line growth inhibition [RAS]
Settings: for IC50: curve of first compound; for viability, T/C: stronger effect = lower value
Excerpt: RAS pathway inhibitors in Combinations in Complex Spheroids
A high-throughput screen of multi-cell type tumor spheroids was designed to identify active combinations of RAS pathway inhibitors and targeted small molecules. Complex spheroids include a stromal component modeled by human endothelial cells (HUVEC) and fibroblasts modeled by human mesenchymal stem cells (MSCs). The concentration ranges selected for each drug and investigational agent were based upon clinically achievable concentrations if the clinical Cmax of the agent was known.
Compounds. The drugs and investigational agents: abemaciclib (NSC768073), cobimetinib (NSC768068), divarasib (GDC6063, NSC841802), docetaxel (NSC628503), GDC-1971 (RLY-1971, NSC841576), gemcitabine (NSC613327), inavolisib (NSC800729), ipatasertib (NSC767898), KB-0742 (NSC834161), MRTX-1133 (NSC836407), osimertinib (NSC779217), RMC-4630 (NSC839698), RMC-6236 (NSC851965), RMC-6291 (NSC852671), Ro-3306 (NSC812927), sapanisertib (NSC764658), SN-38 (NSC673596), staurosporine (NSC755774), SY5609 (NSC837396), and tovorafenib (DAY101, NSC766906), were obtained from the National Cancer Institute (NCI) Developmental Therapeutics Program Chemical Repository. The FDA-approved anticancer drug set is available from the NCI Developmental Therapeutics Program. […] The stock solutions were prepared in dimethyl sulfoxide (DMSO, Sigma-Aldrich, St. Louis, MO, cat. D2650) at 800-fold the tested concentration and stored at -70 degrees C prior to their use. All drugs and investigational agents were tested over a range starting from a high concentration at or near the clinical Cmax and decreasing in half-log increments. If the clinical Cmax for an agent had not been determined, the highest concentration tested was 10 microM.
Cell Culture. All cells were maintained in an incubator at 37 degrees C and 5% CO2 with 95% humidity. The PDC lines were cultured according to standard operating procedures established by the NCI PDMR. All PDCs were thawed and cultured in Matrigel-coated flasks prepared with a working solution of 1X Ham's F-12 nutrient mix, without supplementation (Invitrogen, Waltham, MA, cat. 11765054), 100 U/mL penicillin-streptomycin (Invitrogen, cat. 15140122), and 2.5% Matrigel (Corning Inc., Corning, NY, cat. 354248) for the first three passages. The 362531-283-R-J2-PDC and 782815-120-R-J1-PDC lines were cultured in 6C/Colon 1B media, which includes advanced DMEM/F-12 (Thermo Fisher Scientific, cat. 12634028), 10 mM HEPES (Thermo Fisher Scientific, cat. 15630080), 1X GlutaMAX supplement (Thermo Fisher Scientific, cat. 35050061), 0.1 mg/mL primocin (InvivoGen, San Diego, CA, cat. ant-pm-2), 10% defined fetal bovine serum, heat inactivated (HyClone Laboratories Inc., Logan, UT, cat. SH30070.03HI), 50% L-WRN conditioned media (ATCC, cat. CRL-3276), 1.25 mM N-Acetyl-L-cysteine (Sigma-Aldrich, cat. A9165), 10 mM nicotinamide (Sigma-Aldrich, cat. N0636), 1X B-27 supplement (Thermo Fisher Scientific, cat. 17504044), 1X N-2 supplement (Thermo Fisher Scientific, cat. 17502048), 50 ng/mL human EGF (Thermo Fisher Scientific, cat. PHG0311), and 10 microM Y-27632 dihydrochloride (Tocris Bioscience, cat. 1254). The K12877-001-R-J1-PDC line was cultured in 6I media, which includes all 6C/Colon 1B media plus 10 ng/mL human FGF-10 (PeproTech, cat. 100-26), 1 ng/mL human FGF-2 (PeproTech, cat. 100-18B), 1 µM prostaglandin E2 (Tocris Bioscience, cat. 2296), […] hydrocortisone (Sigma-Aldrich, cat. H4001), and […] bovine insulin (Sigma-Aldrich, cat. I6634). The K86415-001-R-J1-PDC line was cultured in 6D media, which includes all 6C/Colon 1B media components minus the L-WRN conditioned media. The 485176-168-R4-J1-PDC was cultured in PANC media, which includes all 6C/Colon 1B media plus 100 ng/mL human FGF-10 (PeproTech, cat. 100-26), 500 nM SB-431542 (Selleckchem, cat. S1067), and 10 nM gastrin (Tocris Bioscience, cat. 3006). […]
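Also: spheroids exposed to the agents for seven days before the readout.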

Q: What does the source list for CC(C)NCC(C(=O)N1CCN(c2ncnc3c2C(C)CC3O)CC1)c1ccc(Cl)cc1 (centres undefined) + C#Cc1c(F)ccc2cc(O)cc(-c3ncc4c(N5CC6CCC(C5)N6)nc(OCC56CCCN5CC(F)C6)nc4c3F)c12?
A: IC50 (second compound 0.0316 µM): 1220 nM; IC50 (second compound 0.1 µM): 593 nM; IC50 (second compound 0.316 µM): 190 nM; IC50 (second compound 1 µM): 84.5 nM; IC50 (second compound 3.16 µM): < 31.6 nM; IC50 (second compound 10 µM): < 31.6 nM; viability, T/C (second compound 0.0316 µM, first compound 0.0316 µM): 109%; viability, T/C (second compound 0.0316 µM, first compound 0.1 µM): 84.2%; viability, T/C (second compound 0.0316 µM, first compound 0.316 µM): 72%; viability, T/C (second compound 0.0316 µM, first compound 1 µM): 53.6%; viability, T/C (second compound 0.0316 µM, first compound 3.16 µM): 35%; viability, T/C (second compound 0.0316 µM, first compound 10 µM): 28.9%; viability, T/C (second compound 0.1 µM, first compound 0.0316 µM): 97.6%; viability, T/C (second compound 0.1 µM, first compound 0.1 µM): 55.7%; viability, T/C (second compound 0.1 µM, first compound 0.316 µM): 70.4%; viability, T/C (second compound 0.1 µM, first compound 1 µM): 43.6%; viability, T/C (second compound 0.1 µM, first compound 3.16 µM): 37.6%; viability, T/C (second compound 0.1 µM, first compound 10 µM): 32.1%; viability, T/C (second compound 0.316 µM, first compound 0.0316 µM): 56.5%; viability, T/C (second compound 0.316 µM, first compound 0.1 µM): 62.6%; viability, T/C (second compound 0.316 µM, first compound 0.316 µM): 38.8%; viability, T/C (second compound 0.316 µM, first compound 1 µM): 38.9%; viability, T/C (second compound 0.316 µM, first compound 3.16 µM): 26.2%; viability, T/C (second compound 0.316 µM, first compound 10 µM): 20.5%; viability, T/C (second compound 1 µM, first compound 0.0316 µM): 64.7%; viability, T/C (second compound 1 µM, first compound 0.1 µM): 40.8%; viability, T/C (second compound 1 µM, first compound 0.316 µM): 45%; viability, T/C (second compound 1 µM, first compound 1 µM): 21%; viability, T/C (second compound 1 µM, first compound 3.16 µM): 19.4%; viability, T/C (second compound 1 µM, first compound 10 µM): 14%; viability, T/C (second compound 3.16 µM, first compound 0.0316 µM): 36.9%; viability, T/C (second compound 3.16 µM, first compound 0.1 µM): 43.9%; viability, T/C (second compound 3.16 µM, first compound 0.316 µM): 27.9%; viability, T/C (second compound 3.16 µM, first compound 1 µM): 19%; viability, T/C (second compound 3.16 µM, first compound 3.16 µM): 12.7%; viability, T/C (second compound 3.16 µM, first compound 10 µM): 9.87%; viability, T/C (second compound 10 µM, first compound 0.0316 µM): 23.3%; viability, T/C (second compound 10 µM, first compound 0.1 µM): 23.3%; viability, T/C (second compound 10 µM, first compound 0.316 µM): 22.8%; viability, T/C (second compound 10 µM, first compound 1 µM): 14.1%; viability, T/C (second compound 10 µM, first compound 3.16 µM): 9.37%; viability, T/C (second compound 10 µM, first compound 10 µM): 5.49%

Q: What does the source list for CC(Nc1ccc2c(c1)OCCn1cc(N3C(=O)OCC3C(F)F)nc1-2)C(N)=O (centres undefined) + CCn1c(-c2cc(N3CCN(C)CC3)cnc2C(C)OC)c2c3cc(ccc31)-c1csc(n1)CC(NC(=O)C1CC1C)C(=O)N1CCCC(N1)C(=O)OCC(C)(C)C2?
A: IC50 (second compound 0.000949 µM): 160 nM; IC50 (second compound 0.003 µM): 152 nM; IC50 (second compound 0.00949 µM): < 31.6 nM; IC50 (second compound 0.03 µM): < 31.6 nM; IC50 (second compound 0.0949 µM): < 31.6 nM; IC50 (second compound 0.3 µM): < 31.6 nM; viability, T/C (second compound 0.000949 µM, first compound 0.0316 µM): 72.8%; viability, T/C (second compound 0.000949 µM, first compound 0.1 µM): 57.9%; viability, T/C (second compound 0.000949 µM, first compound 0.316 µM): 37.4%; viability, T/C (second compound 0.000949 µM, first compound 1 µM): 33.5%; viability, T/C (second compound 0.000949 µM, first compound 3.16 µM): 24.9%; viability, T/C (second compound 0.000949 µM, first compound 10 µM): 18.5%; viability, T/C (second compound 0.003 µM, first compound 0.0316 µM): 60%; viability, T/C (second compound 0.003 µM, first compound 0.1 µM): 56.5%; viability, T/C (second compound 0.003 µM, first compound 0.316 µM): 38.9%; viability, T/C (second compound 0.003 µM, first compound 1 µM): 35.6%; viability, T/C (second compound 0.003 µM, first compound 3.16 µM): 17.2%; viability, T/C (second compound 0.003 µM, first compound 10 µM): 13.2%; viability, T/C (second compound 0.00949 µM, first compound 0.0316 µM): 37.8%; viability, T/C (second compound 0.00949 µM, first compound 0.1 µM): 32.8%; viability, T/C (second compound 0.00949 µM, first compound 0.316 µM): 29.7%; viability, T/C (second compound 0.00949 µM, first compound 1 µM): 19.1%; viability, T/C (second compound 0.00949 µM, first compound 3.16 µM): 16.3%; viability, T/C (second compound 0.00949 µM, first compound 10 µM): 10.7%; viability, T/C (second compound 0.03 µM, first compound 0.0316 µM): 34.5%; viability, T/C (second compound 0.03 µM, first compound 0.1 µM): 27.7%; viability, T/C (second compound 0.03 µM, first compound 0.316 µM): 21.2%; viability, T/C (second compound 0.03 µM, first compound 1 µM): 12%; viability, T/C (second compound 0.03 µM, first compound 3.16 µM): 11.2%; viability, T/C (second compound 0.03 µM, first compound 10 µM): 6.45%; viability, T/C (second compound 0.0949 µM, first compound 0.0316 µM): 27.4%; viability, T/C (second compound 0.0949 µM, first compound 0.1 µM): 19.4%; viability, T/C (second compound 0.0949 µM, first compound 0.316 µM): 12%; viability, T/C (second compound 0.0949 µM, first compound 1 µM): 13%; viability, T/C (second compound 0.0949 µM, first compound 3.16 µM): 8.97%; viability, T/C (second compound 0.0949 µM, first compound 10 µM): 5.82%; viability, T/C (second compound 0.3 µM, first compound 0.0316 µM): 20.6%; viability, T/C (second compound 0.3 µM, first compound 0.1 µM): 14.2%; viability, T/C (second compound 0.3 µM, first compound 0.316 µM): 12.9%; viability, T/C (second compound 0.3 µM, first compound 1 µM): 8.03%; viability, T/C (second compound 0.3 µM, first compound 3.16 µM): 7.08%; viability, T/C (second compound 0.3 µM, first compound 10 µM): 4.92%

From PubChem BioAssay AID2060886 (Molecular Pharmacology Branch, DTP, NCI, 2025)
